biological target: T1, human MCH receptor (Homo sapiens, UniProt Q99705); assay: Functional IC50 of MCH1R antagonists: cellular calcium flux (FLIPR) after addition of agonist MCH; assay type: cell-based; details: recombinant HEK293 cell line expressing the human MCH receptor
T1 construct: expressed in transfected cells
From the text: Influence on the MCH receptor in vitro; determination of functional IC50 values of MCH1R antagonists
Cloning of the cDNA for the human MCH receptor, preparation of a recombinant HEK293 cell line which expresses the human MCH receptor, and functional measurements with the recombinant cell line took place in analogy to the description by Audinot et al. (J. Biol. Chem. 276, 13554-13562, 2001). A difference from the reference was, however, the use of the plasmid pEAK8 from EDGE Biosystems (USA) for the construction of the expression vector. The host used for the transfection was a transformed HEK cell line named “PEAK Stable Cells” (likewise from EDGE Biosystems). Functional measurements of the cellular calcium flux after addition of agonist (MCH) in the presence of ligand of the invention took place with the aid of the FLIPR apparatus from Molecular Devices (USA), using protocols of the apparatus manufacturer. The compounds of the invention show a significant inhibition (>30%) of the signal induced by the agonist at a concentration of 100 μM, preferably at 10 μM, particularly preferably at 1 μM, very particularly preferably at 100 nM and even more particularly preferably at 10 nM.
Table 8 summarizes the results which were obtained by the above described calcium […] assay.

T1 sequence (Q99705 whole entry): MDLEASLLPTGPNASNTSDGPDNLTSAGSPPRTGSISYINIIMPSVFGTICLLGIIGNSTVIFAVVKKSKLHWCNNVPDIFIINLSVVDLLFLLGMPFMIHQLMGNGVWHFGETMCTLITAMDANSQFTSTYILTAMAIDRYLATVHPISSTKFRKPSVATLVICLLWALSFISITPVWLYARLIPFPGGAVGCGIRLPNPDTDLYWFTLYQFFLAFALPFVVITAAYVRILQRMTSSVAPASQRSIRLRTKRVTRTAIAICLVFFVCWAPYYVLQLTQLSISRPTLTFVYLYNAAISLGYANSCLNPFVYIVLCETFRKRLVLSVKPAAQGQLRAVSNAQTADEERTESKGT

| SMILES | IC50 [nM] |
| --- | --- |
| COc1cc(-n2ccc3cc(OC[C@H]4CCCO4)ccc3c2=O)ccc1OC1CN2CCC1CC2 (stereo partly drawn) [Example 69] | 1180 |
| COc1cc(-n2ccc3cc(OC[C@@H]4CCCO4)ccc3c2=O)ccc1OCCN1CCCC1 [Example 65] | 130 |
| CCC(O)C#Cc1ccc2c(c1)CCN(c1ccc(O[C@H]3C[C@H]4CC[C@@H](C3)N4C)c(Cl)c1)C2=O (stereo partly drawn) [Example 42] | 780 |
| Cc1cc(-n2ccc3cc(OC[C@H]4CCCO4)ccc3c2=O)ccc1O[C@H]1C[C@H]2CC[C@@H](C1)N2CC(C)(C)O [Example 72] | 490 |
| Cc1ccc(-c2cc3c(s2)C(=O)N(c2ccc(OCCN(C)C)cc2)CC3)cc1 [Example 55, 6-[4-(2-Dimethylaminoethoxy)phenyl]-2-p-tolyl-5,6-dihydro-4H-thieno[2,3-c]pyridin-7-one] | 4900 |
| CCCCOc1ccc2c(c1)CCN(c1ccc(OC[C@@H]3CCCN4CCCC[C@H]34)cc1)C2=O [Example 9] | 870 |
| COc1cc(-n2ccc3cc(OC[C@@H]4CCCO4)ccc3c2=O)ccc1OCCN1CC2CCC2C1 (stereo partly drawn) [Example 83, 2-{4-[2-(3-Azabicyclo[3.2.0]hept-3-yl)ethoxy]-3-methoxyphenyl}-6-[(S)-1-(tetrahydrofuran-2-yl)methoxy]-2H-isoquinolin-1-one] | 840 |
| CCCCOc1ccc2c(c1)CCN(c1ccc(O[C@H]3C[C@H]4CC[C@@H](C3)N4CCCF)cc1)C2=O [Example 89, 6-Butoxy-2-{4-[(1R,3R,5S)-8-(3-fluoropropyl)-8-azabicyclo[3.2.1]oct-3-yloxy]phenyl}-3,4-dihydro-2H-isoquinolin-1-one] | 4390 |
| Cc1cc(-n2ccc3cc(OC[C@H]4CCCO4)ccc3c2=O)ccc1O[C@H]1C[C@H]2CC[C@@H](C1)N2Cc1ncc[nH]1 [Example 81] | 460 |
| COCCN1[C@@H]2CC[C@H]1C[C@@H](Oc1ccc(-n3ccc4cc(OC[C@H]5CCCO5)ccc4c3=O)cc1C)C2 [Example 74] | 140 |
| COc1cc(-n2ccc3cc(OC[C@@H]4CCCO4)ccc3c2=O)ccc1OCCN1CC2CCCCC2C1 (stereo partly drawn) [Example 84] | 250 |
| CN1[C@@H]2CC[C@H]1C[C@@H](Oc1ccc(N3CCc4cc(OC5CSC5)ccc4C3=O)cc1Cl)C2 [Example 26, 2-[3-Chloro-4-((1R,3R,5S)-8-methyl-8-azabicyclo[3.2.1]oct-3-yloxy)phenyl]-6-(thietan-3-yloxy)-3,4-dihydro-2H-isoquinolin-1-one] | 14800 |
| CCCCOc1ccc2c(c1)CCN(c1ccc(O[C@H]3C[C@H]4CC[C@@H](C3)N4C)c(Cl)c1)C2=O [Example 1, 6-Butoxy-2-[3-chloro-4-((1R,3R,5S)-8-methyl-8-azabicyclo[3.2.1]oct-3-yloxy)-phenyl]-3,4-dihydro-2H-isoquinolin-1-one] | 930 |
| COc1cc(-n2ccc3cc(OC[C@@H]4CCCO4)ccc3c2=O)ccc1OCCN1C2CCC1CC2 [Example 86] | 210 |
| CN1[C@@H]2CC[C@H]1C[C@@H](Oc1ccc(-n3ccc4cc(OC[C@@H]5CCCO5)ccc4c3=O)cc1)C2 [Example 56, 2-[4-((1R,3R,5S)-8-Methyl-8-azabicyclo[3.2.1]oct-3-yloxy)phenyl]-6-[(S)-1-(tetrahydrofuran-2-yl)methoxy]-2H-isoquinolin-1-one] | 160 |
| CN1[C@@H]2CC[C@H]1C[C@@H](Oc1ccc(N3CCc4cc(C#CC5(O)CCCC5)ccc4C3=O)cc1Cl)C2 [Example 34] | 1150 |
| O=c1c2ccc(OC[C@H]3CCCO3)cc2ccn1-c1ccc(O[C@H]2C[C@H]3CC[C@@H](C2)N3C2CC2)c(F)c1 [Example 75] | 5010 |
| CN1[C@@H]2CC[C@H]1C[C@@H](Oc1ccc(N3CCc4cc(C#CC(C)(C)O)ccc4C3=O)cc1Cl)C2 [Example 45] | 1110 |
| CN1[C@@H]2CC[C@H]1C[C@@H](Oc1ccc(N3CCc4cc(OCC5CCC5)ccc4C3=O)cc1Cl)C2 [Example 17] | 1140 |
| CCCCOc1ccc2c(c1)CCN(c1ccc(OCCN3CCCC3)c(OC)c1)C2=O [Example 6] | 270 |
| COCCOc1ccc2c(c1)CCN(c1ccc(OCCN3CCCC3)c(OC)c1)C2=O [Example 15] | 5440 |
